Legend:
LD50 (mice) = conditions: mouse, in vivo
Candida albicans [1] = assay: oral activity in Candida-infected mice (survival); type: in vivo; conditions: 100 mg/kg orally twice a day for 7 days; for Number of Animals surviving on day 1 after infection / Number of Animals surviving on day 2 after infection / Number of Animals surviving on day 3 after infection / Number of Animals surviving on day 4 after infection / Number of Animals surviving on day 5 after infection / Number of Animals surviving on day 6 after infection / Number of Animals surviving on day 7 after infection: groups of 10 mice
Experimental: In order to determine oral activity, groups of 10 mice weighing approximately 20 g were pretreated for 2 days with intramuscular doses of 50 mg/kg of hydrocortisone in order to obtain firm rooting of the infection. The mice were then each infected intravenously with 500,000 Candida albicans germs and subsequently treated orally twice a day for 7 days with 100 mg/kg of the substance to be tested. In addition to an infected, but untreated control group, another group was treated for comparison with the comparison substance MICONAZOL.

Candida albicans [2] = assay: series dilution test in vitro, Candida albicans; type: cell-based; conditions: dilution b=1:100,000
Experimental: The antimicrobial activity of the compounds corresponding to general formula (I) in vitro was tested in a series dilution test with dilution ratios of from 1:10,000 to 1:200,000 against the germs Staphylococcus aureus, Trichophyton mentagrophytes and Candida albicans.
The results were evaluated by the following graduations of the growth inhibition level:
.phi.=complete inhibition
The following dilution ratios were selected as the dilution ratio V: […]

Row | Structure (SMILES) | LD50 (LD50 (mice)) [mg/kg] | Number of Animals surviving on day 1 after infection (Candida albicans [1]) | Number of Animals surviving on day 2 after infection (Candida albicans [1]) | Number of Animals surviving on day 3 after infection (Candida albicans [1]) | Number of Animals surviving on day 4 after infection (Candida albicans [1]) | Number of Animals surviving on day 5 after infection (Candida albicans [1]) | Number of Animals surviving on day 6 after infection (Candida albicans [1]) | Number of Animals surviving on day 7 after infection (Candida albicans [1]) | growth inhibition level, Candida albicans (Candida albicans [2]) | animals still alive on the last day of the treatment (Candida albicans [1]; last day of treatment) [%]
1 | OC(Cc1ccc(Cl)cc1Cl)(Cn1ccnc1)c1ccc(Cl)cc1Cl (stereo not drawn) [Example 9, 1,2-bis-(2,4-dichlorophenyl)-3-(imidazol-1-yl)-propan-2-ol-nitrate] | 1000 | 10 | 10 | 10 | 10 | 10 | 10 | 9 |  | 
2 | OC(Cc1ccc(Cl)cc1)(Cn1ccnc1)c1ccc(Cl)cc1 (stereo not drawn) [Example 8, 1,2-bis-(4-chlorophenyl)-3-(imidazol-1-yl)-propan-2-ol nitrate] | 1000 | 10 | 10 | 10 | 10 | 10 | 10 | 10 |  | 
3 | Cl.OC(Cc1ccc(Cl)cc1)(Cn1ccnc1)c1ccc(Cl)cc1Cl (stereo not drawn) [Example 30, 1-(4-chlorophenyl)-2-(2,4-dichlorophenyl)-3-(imidazol-1-yl)-propan-2-ol hy drochloride] | 1000 | 10 | 10 | 10 | 10 | 10 | 10 | 10 |  | 
4 | OC(Cc1ccc(Cl)cc1)(Cn1ccnc1)c1ccccc1 (stereo not drawn) [Example 28, 1-(4-chlorophenyl)-2-phenyl-3-(imidazol-1-yl)-propan-2-ol nitrate] |  | 10 | 10 | 10 | 10 | 10 | 10 | 10 | + ++ | 
5 | OC(Cc1ccccc1)(Cn1ccnc1)c1ccc(Cl)cc1 (stereo not drawn) [Example 15, 1-phenyl-2-(4-chlorophenyl)-3-(imidazol-1-yl)-propan-2-ol nitrate] |  | 10 | 10 | 10 | 10 | 10 | 10 | 9 |  | 
6 | Clc1ccc(COC(Cn2ccnc2)c2ccc(Cl)cc2Cl)c(Cl)c1.O=[N+]([O-])O (stereo not drawn) [MICONAZOL, 1-[2,4-dichloro-β-(2,4-dichlorobenzyloxy)-phenethyl]imidazole nitrate, reference compound] |  | 10 | 10 | 8 | 8 | 6 | 4 | 2 |  | 20
7 | OC(Cc1ccc(Cl)cc1Cl)(Cn1ccnc1)c1ccccc1 (stereo not drawn) [Example 34, 1-(2,4-dichlorophenyl)-2-phenyl-3-(imidazol-1-yl)-propan-2-ol nitrate] |  | 10 | 10 | 10 | 10 | 10 | 10 | 9 |  | 

Source: patent publication US4358458A, “Tertiary imidazolyl alcohols and method for the treatment of generalized and local infections caused by fungi and yeasts” (Nordmark-Werke GmbH, priority 1976, dated 1982)
